± gives the expanded uncertainty stated by the source.
Experiment: xn = mol fraction of the nth substance listed
Conditions: 101 kPa, Liquid

CCOC(=O)CC(=O)OCC [diethyl 1,3-propanedioate] + CCCCCO
mass density [kg/m3]
Conditions | 288.15 K | 298.15 K | 313.15 K | 328.15 K
x1 = 0.0999 | 849.562 ± 0.4 | 841.661 ± 0.41 | 829.624 ± 0.43 | 817.296 ± 0.45
x1 = 0.1998 | 878.757 ± 0.36 | 870.343 ± 0.37 | 857.553 ± 0.39 | 844.519 ± 0.41
x1 = 0.2999 | 906.036 ± 0.32 | 897.187 ± 0.33 | 883.774 ± 0.35 | 870.127 ± 0.37
x1 = 0.3498 | 919.092 ± 0.3 | 910.054 ± 0.31 | 896.347 ± 0.33 | 882.426 ± 0.35
x1 = 0.3997 | 931.801 ± 0.28 | 922.576 ± 0.29 | 908.607 ± 0.31 | 894.428 ± 0.33
x1 = 0.4499 | 944.204 ± 0.26 | 934.797 ± 0.27 | 920.565 ± 0.29 | 906.141 ± 0.32
x1 = 0.4999 | 956.145 ± 0.24 | 946.568 ± 0.26 | 932.101 ± 0.28 | 917.475 ± 0.3
x1 = 0.5501 | 967.903 ± 0.23 | 958.185 ± 0.24 | 943.506 ± 0.26 | 928.648 ± 0.28
x1 = 0.599 | 978.962 ± 0.21 | 969.118 ± 0.22 | 954.233 ± 0.24 | 939.199 ± 0.27
x1 = 0.65 | 990.137 ± 0.19 | 980.151 ± 0.21 | 965.074 ± 0.23 | 949.864 ± 0.25
x1 = 0.6997 | 1000.81 ± 0.18 | 990.684 ± 0.19 | 975.442 ± 0.21 | 960.07 ± 0.24
x1 = 0.7997 | 1021.52 ± 0.21 | 1011.18 ± 0.2 | 995.601 ± 0.18 | 979.945 ± 0.21
x1 = 0.9 | 1041.37 ± 0.25 | 1030.84 ± 0.23 | 1015 ± 0.2 | 999.065 ± 0.18
x1 = 1 | 1060.33 ± 0.27 | 1049.6 ± 0.26 | 1033.5 ± 0.23 | 1017.34 ± 0.2

CCOC(=O)CC(=O)OCC [diethyl 1,3-propanedioate] + CCCCO
mass density [kg/m3]
Conditions | 288.15 K | 298.15 K | 313.15 K | 328.15 K
x1 = 0.1001 | 850.611 ± 0.4 | 842.336 ± 0.41 | 829.747 ± 0.43 | 816.824 ± 0.45
x1 = 0.2002 | 883.667 ± 0.35 | 874.886 ± 0.36 | 861.524 ± 0.38 | 847.882 ± 0.4
x1 = 0.3001 | 913.38 ± 0.31 | 904.169 ± 0.32 | 890.202 ± 0.34 | 875.956 ± 0.36
x1 = 0.35 | 927.207 ± 0.29 | 917.818 ± 0.3 | 903.569 ± 0.32 | 889.092 ± 0.34
x1 = 0.4 | 940.225 ± 0.27 | 930.667 ± 0.28 | 916.189 ± 0.3 | 901.465 ± 0.32
x1 = 0.45 | 952.775 ± 0.25 | 943.06 ± 0.26 | 928.349 ± 0.28 | 913.434 ± 0.3
x1 = 0.5 | 964.641 ± 0.23 | 954.786 ± 0.24 | 939.89 ± 0.27 | 924.793 ± 0.29
x1 = 0.5501 | 976.114 ± 0.21 | 966.141 ± 0.23 | 951.051 ± 0.25 | 935.788 ± 0.27
x1 = 0.5999 | 986.952 ± 0.2 | 976.853 ± 0.21 | 961.602 ± 0.23 | 946.182 ± 0.26
x1 = 0.7 | 1007.44 ± 0.19 | 997.139 ± 0.18 | 981.612 ± 0.2 | 965.954 ± 0.23
x1 = 0.7998 | 1026.31 ± 0.22 | 1015.86 ± 0.2 | 1000.1 ± 0.18 | 984.244 ± 0.2
x1 = 0.9001 | 1043.95 ± 0.25 | 1033.35 ± 0.23 | 1017.41 ± 0.21 | 1001.38 ± 0.18
x1 = 1 | 1060.33 ± 0.27 | 1049.6 ± 0.26 | 1033.5 ± 0.23 | 1017.34 ± 0.2

— the NIST ThermoML archive (doi:10.1021/je100100n)
